Reference: US20230040770A1, “HETEROCYCLIC COMPOUND AND USE THEREOF” (TAKEDA PHARMACEUTICAL COMPANY LIMITED, priority 2019, published 2023)

Each molecule was assayed against T1, human orexin type 2 receptor (Homo sapiens, UniProt O43614) (assay: Measurement of orexin type 2 receptor agonist activity (calcium indicator fluorescence, CHO cells forcibly expressing human OX2 receptor)). Conditions: compound at 3 μM; 0% = DMSO, 100% = orexin A (human) 10 nM.
T1 construct: expressed in transfected cells
T1 sequence (O43614 1-444): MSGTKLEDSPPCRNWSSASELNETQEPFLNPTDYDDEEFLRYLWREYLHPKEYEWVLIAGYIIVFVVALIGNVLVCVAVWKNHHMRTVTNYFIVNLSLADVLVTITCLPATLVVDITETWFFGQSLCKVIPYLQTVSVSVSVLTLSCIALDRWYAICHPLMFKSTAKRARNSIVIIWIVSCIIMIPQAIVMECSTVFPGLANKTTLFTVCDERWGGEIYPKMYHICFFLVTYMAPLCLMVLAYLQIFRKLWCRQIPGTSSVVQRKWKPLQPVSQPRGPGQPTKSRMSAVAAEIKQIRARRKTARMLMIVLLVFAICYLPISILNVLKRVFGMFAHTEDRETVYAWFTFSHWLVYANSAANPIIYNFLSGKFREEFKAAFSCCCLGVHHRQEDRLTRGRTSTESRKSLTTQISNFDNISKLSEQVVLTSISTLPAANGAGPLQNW
Format: cell-based
Summary of the method: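 Agonist response normalised between vehicle (0%) and orexin A at 10 nM final (100%), from kinetic Fluo-4 calcium signals recorded for about 2 min after compound addition. Cells: stable human OX2R CHO clone, dye-loaded 30 min at 37 °C plus 30 min at room temperature.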

Row | Compound | OX2R agonist activity (3 μM, %) [%]
1 | CS(=O)(=O)N[C@H]1[C@@H](F)CN(C(=O)C23CC(C2)C3)[C@H]1Cc1cccc(-c2cccc(F)c2)c1F [Example 231, N-{(2S,3R,4S)-1-(bicyclo[1.1.1]pentane-1-carbonyl)-2-[(2,3′-difluoro[1,1′-biphenyl]-3-yl)methyl]-4-fluoropyrrolidin-3-yl}methanesulfonamide] | 95
2 | CCS(=O)(=O)N[C@H]1[C@@H](F)CN(C(=O)C2CC2)[C@H]1Cc1cccc(-c2cc(F)ccc2F)c1F [Example 238, N-{(2S,3R,4S)-1-(cyclopropanecarbonyl)-4-fluoro-2-[(2,2′,5′-trifluoro[1,1′-biphenyl]-3-yl)methyl]pyrrolidin-3-yl}ethanesulfonamide] | 98
3 | CCS(=O)(=O)N[C@H]1[C@@H](F)CN(C(=O)C2CC2)[C@H]1Cc1cccc(-c2ccccc2)c1F [Example 239, N-{(2S,3R,4S)-1-(cyclopropanecarbonyl)-4-fluoro-2-[(2-fluoro[1,1′-biphenyl]-3-yl)methyl]pyrrolidin-3-yl}ethanesulfonamide] | 102
4 | CS(=O)(=O)N[C@@H]1[C@H](Cc2cccc(-c3cc(F)cc(Cl)c3)c2F)N(C(=O)C2CC2)CC1(F)F [Example 245, N-[(2S,3R)-2-[(3′-chloro-2,5′-difluoro[1,1′-biphenyl]-3-yl)methyl]-1-(cyclopropanecarbonyl)-4,4-difluoropyrrolidin-3-yl]methanesulfonamide] | 94
5 | CCS(=O)(=O)N[C@@H]1[C@H](Cc2cccc(-c3cc(F)cc(Cl)c3)c2F)N(C(=O)C2CC2)CC1(F)F [Example 248, N-[(2S,3R)-2-[(3′-chloro-2,5′-difluoro[1,1′-biphenyl]-3-yl)methyl]-1-(cyclopropanecarbonyl)-4,4-difluoropyrrolidin-3-yl]ethanesulfonamide] | 90
6 | CCS(=O)(=O)N[C@@H]1[C@H](Cc2cccc(-c3cccc(Cl)c3F)c2F)N(C(=O)C2CC2)CC1(F)F [Example 249, N-[(2S,3R)-2-[(3′-chloro-2,2′-difluoro[1,1′-biphenyl]-3-yl)methyl]-1-(cyclopropanecarbonyl)-4,4-difluoropyrrolidin-3-yl]ethanesulfonamide] | 90
7 | CS(=O)(=O)N[C@@H]1[C@H](Cc2cccc(-c3cccc(Cl)c3)c2F)N(C(=O)C2CC2)CC1(F)F [Example 250, N-[(2S,3R)-2-[(3′-chloro-2-fluoro[1,1′-biphenyl]-3-yl)methyl]-1-(cyclopropanecarbonyl)-4,4-difluoropyrrolidin-3-yl]methanesulfonamide] | 96
8 | CCS(=O)(=O)N[C@@H]1[C@H](Cc2cccc(-c3cc(Cl)ccc3F)c2F)N(C(=O)C2CC2)CC1(F)F [Example 251, N-[(2S,3R)-2-[(5′-chloro-2,2′-difluoro[1,1′-biphenyl]-3-yl)methyl]-1-(cyclopropanecarbonyl)-4,4-difluoropyrrolidin-3-yl]ethanesulfonamide] | 91
9 | CCCC(=O)N1CC(F)(F)[C@H](NS(=O)(=O)CC)[C@@H]1Cc1cccc(-c2cccc(F)c2)c1F [Example 257, N-{(2S,3R)-1-butanoyl-2-[(2,3′-difluoro[1,1′-biphenyl]-3-yl)methyl]-4,4-difluoropyrrolidin-3-yl}ethanesulfonamide] | 96
10 | CS(=O)(=O)N[C@@H]1[C@H](Cc2cccc(-c3cccc(Cl)c3)c2F)N(C(=O)C2CCO2)CC1(F)F (stereo partly drawn) [Example 259, N-[(2S,3R)-2-[(3′-chloro-2-fluoro[1,1′-biphenyl]-3-yl)methyl]-4,4-difluoro-1-(oxetane-2-carbonyl)pyrrolidin-3-yl]methanesulfonamide] | 96
11 | CS(=O)(=O)N[C@@H]1[C@H](Cc2cccc(-c3cccc(Cl)c3F)c2F)N(C(=O)C2CCO2)CC1(F)F (stereo partly drawn) [Example 263, N-[(2S,3R)-2-[(3′-chloro-2,2′-difluoro[1,1′-biphenyl]-3-yl)methyl]-4,4-difluoro-1-(oxetane-2-carbonyl)pyrrolidin-3-yl]methanesulfonamide] | 103
12 | CS(=O)(=O)N[C@@H]1[C@H](Cc2cccc(-c3cccc(Cl)c3F)c2F)N(C(=O)C2CCO2)CC1(F)F (stereo partly drawn) [Example 264, N-[(2S,3R)-2-[(3′-chloro-2,2′-difluoro[1,1′-biphenyl]-3-yl)methyl]-4,4-difluoro-1-(oxetane-2-carbonyl)pyrrolidin-3-yl]methanesulfonamide] | 98
13 | CS(=O)(=O)N[C@@H]1[C@H](Cc2cccc(-c3cc(F)cc(Cl)c3)c2F)N(C(=O)C2CCO2)CC1(F)F (stereo partly drawn) [Example 265, N-[(2S,3R)-2-[(3′-chloro-2,5′-difluoro[1,1′-biphenyl]-3-yl)methyl]-4,4-difluoro-1-(oxetane-2-carbonyl)pyrrolidin-3-yl]methanesulfonamide] | 96
14 | CS(=O)(=O)N[C@@H]1[C@H](Cc2cccc(-c3cc(F)cc(Cl)c3)c2F)N(C(=O)C2CCO2)CC1(F)F (stereo partly drawn) [Example 266, N-[(2S,3R)-2-[(3′-chloro-2,5′-difluoro[1,1′-biphenyl]-3-yl)methyl]-4,4-difluoro-1-(oxetane-2-carbonyl)pyrrolidin-3-yl]methanesulfonamide] | 83
15 | CCS(=O)(=O)N[C@@H]1[C@H](Cc2cccc(-c3cccc(Cl)c3)c2F)N(C(=O)C2CCO2)CC1(F)F (stereo partly drawn) [Example 267, N-[(2S,3R)-2-[(3′-chloro-2-fluoro[1,1′-biphenyl]-3-yl)methyl]-4,4-difluoro-1-(oxetane-2-carbonyl)pyrrolidin-3-yl]ethanesulfonamide] | 92
16 | CCS(=O)(=O)N[C@@H]1[C@H](Cc2cccc(-c3cccc(Cl)c3)c2F)N(C(=O)C2CCO2)CC1(F)F (stereo partly drawn) [Example 268, N-[(2S,3R)-2-[(3′-chloro-2-fluoro[1,1′-biphenyl]-3-yl)methyl]-4,4-difluoro-1-(oxetane-2-carbonyl)pyrrolidin-3-yl]ethanesulfonamide] | 94
17 | CCS(=O)(=O)N[C@@H]1[C@H](Cc2cccc(-c3cc(F)cc(F)c3)c2F)N(C(=O)C2(O)CCC2)CC1(F)F [Example 272, N-{(2S,3R)-4,4-difluoro-1-(1-hydroxycyclobutane-1-carbonyl)-2-[(2,3′,5′-trifluoro[1,1′-biphenyl]-3-yl)methyl]pyrrolidin-3-yl}ethanesulfonamide] | 88
18 | CCS(=O)(=O)N[C@@H]1[C@H](Cc2cccc(-c3cccc(F)c3)c2F)N(C(=O)C2(O)CCC2)CC1(F)F [Example 273, N-[(2S,3R)-2-[(2,3′-difluoro[1,1′-biphenyl]-3-yl)methyl]-4,4-difluoro-1-(1-hydroxycyclobutane-1-carbonyl)pyrrolidin-3-yl]ethanesulfonamide] | 83
19 | CCS(=O)(=O)N[C@@H]1[C@H](Cc2cccc(-c3cccc(F)c3F)c2F)N(C(=O)C2(O)CCC2)CC1(F)F [Example 274, N-{(2S,3R)-4,4-difluoro-1-(1-hydroxycyclobutane-1-carbonyl)-2-[(2,2′,3′-trifluoro[1,1′-biphenyl]-3-yl)methyl]pyrrolidin-3-yl}ethanesulfonamide] | 93
